Measured values published in patent publication US20240409534A1, “CRYSTAL FORM OF METHYLPYRAZOLE-SUBSTITUTED PYRIDOIMIDAZOLE COMPOUND AND PREPARATION METHOD THEREFOR” (priority 2021, published 2024).

Tests used:
Ba/F3-TEL-FLT1 (VEGFR1) = test: In vitro proliferation of BaF3 cell line, Ba/F3-TEL-FLT1; format: cell-based
Experimental: (§1) The mother solution was prepared into a total of 9 concentration gradients (10.0000 mM, 2.5000 mM, 0.6250 mM, 0.1563 mM, 0.0391 mM, 0.0098 mM, 0.0024 mM, 0.0006 mM and 0.0002 mM) in a 4-fold dilution and stored in a 96-well plate (Beaver, Suzhou), while the same volume of DMSO solvent was used as a negative control. • 1. Cell suspension in logarithmic growth phase was taken and inoculated in a white 96-well cell culture plate (Corning 3917, NY, USA) with a volume of 95 μL per well (2000 cells/well). • 2. Diluted medium-compound mixture was added in a volume of 5 μL per well, respectively, and the final concentration of DMSO in Ba/F3-TEL-FLT1 (VEGFR1), Ba/F3-TEL-FLT4 (VEGFR3) and Ba/F3-TEL-VEGFR2 cells was 0.1%.
(§2) • 3. The plate was incubated in a 37° C., 5% CO2 incubator for 72 h. • 4. The proliferation inhibitory activity and data analysis of the compound by CellTiter-Glo method were the same as in Experimental embodiment 1.

[1] = Hygroscopicity study by dynamic vapor sorption (DVS); format: physicochemical; settings: 25° C. and 80% RH
Experimental: Instrument model: SMS Intrinsic Dynamic Vapor Sorption Analyzer
Test conditions: Taking a sample (10 to 30 mg) and placing in a DVS sample dish for testing.
Detailed DVS parameters are as follows: • Temperature: 25° C. • Equilibration: dm/dt=0.002%/min (minimum: 10 min, maximum: 180 min) RH range: 0% RH to 95% RH to 0% RH • RH gradient: 10% (90% RH to 0% RH to 90% RH) • 5% (95% RH to 90% RH and 90% RH to 95% RH)

[2] = Stability test (high temperature, high humidity, light, accelerated, long-term); format: physicochemical
Description: For tests under high temperature, high humidity and light conditions, samples were put into an open clean weighing bottle, spread into a thin layer of 5 mm or less, and 3 samples (1.1 g/sample) were weighed in parallel at each condition time point. The prepared samples were placed under each condition, and sampled for analysis at each time point.
For accelerated stability and long-term stability tests, samples were packed into a double-layer pharmaceutical low-density polyethylene bag. Each layer of the pharmaceutical low-density polyethylene bag was sealed with buckles, and then the double-layer low-density polyethylene bag was heat-sealed in an aluminum foil bag. 6 samples (1.1 g/sample) were weighed in parallel at each condition time point. The prepared samples were placed under each condition, and sampled for analysis at each time point.

Ba/F3-TEL-FLT4 (VEGFR3) = test: In vitro proliferation of BaF3 cell line, Ba/F3-TEL-FLT4; format: cell-based
Experimental: as §1, §2

[3] = Mus musculus, BaF3, 72 h, read-out: Relative IC50
[4] = Accelerated stability test (40° C./relative humidity: 75%), Day 0
[5] = Accelerated stability test (40° C./relative humidity: 75%), Month 1
[6] = Accelerated stability test (40° C./relative humidity: 75%), Month 2
[7] = Accelerated stability test (40° C./relative humidity: 75%), Month 3
[8] = Accelerated stability test (40° C./relative humidity: 75%), Month 6
[9] = High humidity (25° C./relative humidity: 92.5%, open), Day 5
[10] = High humidity (25° C./relative humidity: 92.5%, open), Day 10
[11] = High humidity (25° C./relative humidity: 92.5%, open), Day 30
[12] = High temperature (60° C., open), Day 5
[13] = High temperature (60° C., open), Day 10
[14] = High temperature (60° C., open), Day 30
[15] = Light (Total illumination: 1.2 × 10^6 Lux · hr/NUV: 200 w · hr/m^2, open), Day 5
[16] = Light (Total illumination: 1.2 × 10^6 Lux · hr/NUV: 200 w · hr/m^2, open), Day 10
[17] = Long-term stability test (25° C./relative humidity: 60%), Day 0
[18] = Long-term stability test (25° C./relative humidity: 60%), Month 3
[19] = Long-term stability test (25° C./relative humidity: 60%), Month 6
[20] = Long-term stability test (25° C./relative humidity: 60%), Month 9

CS(=O)(=O)O.Cn1cc(-c2ccn3c(-c4cc(NS(C)(=O)=O)nc(-c5ccc(F)cc5F)c4)cnc3c2)cn1
Maximum inhibition (Ba/F3-TEL-FLT1 (VEGFR1); 72 h): 99.34%
Minimum inhibition (Ba/F3-TEL-FLT1 (VEGFR1); 72 h): −12.05%
IC50 (Ba/F3-TEL-FLT1 (VEGFR1); [3]): 46 nM
hygroscopic weight gain ΔW [1]: 1.708%
Content [2, 4]: 97.9%
Crystal form (XRPD) [2, 4]: Crystal form A
Total impurities [2, 4]: 1.2%
Content [2, 5]: 98.0%
Crystal form (XRPD) [2, 5]: Crystal form A
Total impurities [2, 5]: 1.3%
Content [2, 6]: 97.6%
Crystal form (XRPD) [2, 6]: Crystal form A
Total impurities [2, 6]: 1.2%
Content [2, 7]: 98.0%
Crystal form (XRPD) [2, 7]: Crystal form A
Total impurities [2, 7]: 1.2%
Content [2, 8]: 98.5%
Crystal form (XRPD) [2, 8]: Crystal form A
Total impurities [2, 8]: 1.2%
Content ([2]; Day 0): 97.9%
Crystal form (XRPD) ([2]; Day 0): Crystal form A
Total impurities ([2]; Day 0): 1.2%
Content [2, 9]: 96.8%
Crystal form (XRPD) [2, 9]: Crystal form A
Total impurities [2, 9]: 1.2%
Content [2, 10]: 98.8%
Crystal form (XRPD) [2, 10]: Crystal form A
Total impurities [2, 10]: 1.2%
Content [2, 11]: 98.0%
Crystal form (XRPD) [2, 11]: Crystal form A
Total impurities [2, 11]: 1.3%
Content [2, 12]: 97.0%
Crystal form (XRPD) [2, 12]: Crystal form A
Total impurities [2, 12]: 1.3%
Content [2, 13]: 98.5%
Crystal form (XRPD) [2, 13]: Crystal form A
Total impurities [2, 13]: 1.1%
Content [2, 14]: 98.2%
Crystal form (XRPD) [2, 14]: Crystal form A
Total impurities [2, 14]: 1.2%
Content [2, 15]: 98.4%
Crystal form (XRPD) [2, 15]: Crystal form A
Total impurities [2, 15]: 1.2%
Content [2, 16]: 97.7%
Crystal form (XRPD) [2, 16]: Crystal form A
Total impurities [2, 16]: 1.1%
Content [2, 17]: 97.9%
Crystal form (XRPD) [2, 17]: Crystal form A
Total impurities [2, 17]: 1.2%
Content [2, 18]: 98.3%
Crystal form (XRPD) [2, 18]: Crystal form A
Total impurities [2, 18]: 1.2%
Content [2, 19]: 98.6%
Crystal form (XRPD) [2, 19]: Crystal form A
Total impurities [2, 19]: 1.2%
Content [2, 20]: 97.6%
Crystal form (XRPD) [2, 20]: Crystal form A
Total impurities [2, 20]: 1.2%
Maximum inhibition (Ba/F3-TEL-FLT4 (VEGFR3); 72 h): 100%
Minimum inhibition (Ba/F3-TEL-FLT4 (VEGFR3); 72 h): −2.54%
IC50 (Ba/F3-TEL-FLT4 (VEGFR3); [3]): 395 nM
